Measurements as given in ChEMBL document CHEMBL4507283, “Data for DCP probe BI-1935” (2021).

Key:
[1] = biological target: Vasopressin V1a receptor (Homo sapiens) (UniProt P37288); experiment: V1A/HU Eurofins-Panlabs selectivity data (BI); conditions: Compound concentration 10.0 uM
[2] = biological target: Tyrosine-protein kinase Lyn (Homo sapiens) (UniProt P07948); conditions: Compound concentration 1000.0 nM
[3] = biological target: Discoidin domain-containing receptor 2 (Homo sapiens) (UniProt Q16832); conditions: Compound concentration 1000.0 nM
Sequence of Discoidin domain-containing receptor 2 (Homo sapiens) (Q16832 whole entry, the tested form may be a part): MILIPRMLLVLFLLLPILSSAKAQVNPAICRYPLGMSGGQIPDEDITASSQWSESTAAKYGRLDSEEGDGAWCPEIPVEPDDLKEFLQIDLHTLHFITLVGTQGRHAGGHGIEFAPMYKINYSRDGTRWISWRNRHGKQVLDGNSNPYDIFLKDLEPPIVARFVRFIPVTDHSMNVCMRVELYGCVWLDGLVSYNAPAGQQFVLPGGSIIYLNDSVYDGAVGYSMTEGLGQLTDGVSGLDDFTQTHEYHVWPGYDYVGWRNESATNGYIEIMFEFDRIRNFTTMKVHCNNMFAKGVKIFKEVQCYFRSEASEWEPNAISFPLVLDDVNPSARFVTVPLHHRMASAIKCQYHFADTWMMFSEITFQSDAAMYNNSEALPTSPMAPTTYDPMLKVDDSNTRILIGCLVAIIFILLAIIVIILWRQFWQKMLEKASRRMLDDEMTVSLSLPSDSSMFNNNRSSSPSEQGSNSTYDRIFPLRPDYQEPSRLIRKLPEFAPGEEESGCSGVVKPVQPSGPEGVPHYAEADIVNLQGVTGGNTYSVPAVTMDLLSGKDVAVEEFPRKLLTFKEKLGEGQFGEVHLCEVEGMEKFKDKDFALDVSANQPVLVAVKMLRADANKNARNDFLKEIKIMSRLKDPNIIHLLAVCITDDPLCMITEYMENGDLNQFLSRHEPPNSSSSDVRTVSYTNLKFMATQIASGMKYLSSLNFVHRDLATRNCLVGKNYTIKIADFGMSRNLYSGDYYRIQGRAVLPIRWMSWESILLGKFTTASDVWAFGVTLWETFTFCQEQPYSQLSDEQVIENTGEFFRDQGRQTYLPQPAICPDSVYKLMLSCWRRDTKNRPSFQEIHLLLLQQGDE

[4] = tested on: Receptor-type tyrosine-protein kinase FLT3 (Homo sapiens), P36888 [R834Q]; conditions: Compound concentration 1000.0 nM
[5] = biological target: Rhodopsin kinase GRK7 (Homo sapiens) (UniProt Q8WTQ7); conditions: Compound concentration 1000.0 nM
[6] = biological target: Serine/threonine-protein kinase WNK1 (Homo sapiens) (UniProt Q9H4A3); conditions: Compound concentration 1000.0 nM
[7] = biological target: Serine/threonine-protein kinase RIO3 (Homo sapiens) (UniProt O14730); conditions: Compound concentration 1000.0 nM
[8] = biological target: Voltage-dependent L-type calcium channel subunit alpha-1C (DHP site) (Rattus norvegicus, UniProt P22002); experiment: CA+/DHPSI/RA Eurofins-Panlabs selectivity data (BI); conditions: compound concentration 10 uM, read-out: % Ctrl
[9] = biological target: Tyrosine-protein kinase Srms (Homo sapiens) (UniProt Q9H3Y6); conditions: Compound concentration 1000.0 nM
[10] = biological target: Hormonally up-regulated neu tumor-associated kinase (Homo sapiens) (UniProt P57058); conditions: Compound concentration 1000.0 nM
[11] = biological target: Cyclin-dependent kinase 15 (Homo sapiens) (UniProt Q96Q40); conditions: Compound concentration 1000.0 nM
[12] = biological target: D(4) dopamine receptor (Homo sapiens) (UniProt P21917); experiment: D4.2/H Eurofins-Panlabs selectivity data (BI); conditions: Compound concentration 10.0 uM
[13] = tested on: Tyrosine-protein kinase ABL1 (Homo sapiens), P00519 [M351T]; conditions: Compound concentration 1000.0 nM
[14] = tested on: Tyrosine-protein kinase ABL1 (Homo sapiens), P00519 [H396P]; conditions: Compound concentration 1000.0 nM
[15] = biological target: Serine/threonine-protein kinase ULK2 (Homo sapiens) (UniProt Q8IYT8); conditions: Compound concentration 1000.0 nM
[16] = biological target: Tyrosine-protein kinase receptor Tie-1 (Homo sapiens) (UniProt P35590); conditions: Compound concentration 1000.0 nM
[17] = biological target: Tyrosine-protein kinase Yes (Homo sapiens) (UniProt P07947); conditions: Compound concentration 1000.0 nM
[18] = biological target: Histamine H2 receptor (Homo sapiens) (UniProt P25021); experiment: H2/H Eurofins-Panlabs selectivity data (BI); conditions: Compound concentration 10.0 uM
Sequence of Histamine H2 receptor (Homo sapiens) (P25021 whole entry): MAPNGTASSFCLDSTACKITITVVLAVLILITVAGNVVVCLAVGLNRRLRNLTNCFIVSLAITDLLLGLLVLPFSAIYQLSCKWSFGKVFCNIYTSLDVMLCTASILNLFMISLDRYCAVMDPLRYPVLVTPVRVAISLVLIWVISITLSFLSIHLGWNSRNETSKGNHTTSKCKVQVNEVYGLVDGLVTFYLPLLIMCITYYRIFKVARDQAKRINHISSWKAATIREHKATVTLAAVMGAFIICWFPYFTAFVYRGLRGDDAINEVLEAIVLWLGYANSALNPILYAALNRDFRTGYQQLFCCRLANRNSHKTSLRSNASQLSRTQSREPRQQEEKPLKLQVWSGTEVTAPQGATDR

[19] = biological target: Serine/threonine-protein kinase WNK2 (Homo sapiens) (UniProt Q9Y3S1); conditions: Compound concentration 1000.0 nM
[20] = biological target: Protein kinase C eta type (Homo sapiens) (UniProt P24723); conditions: Compound concentration 1000.0 nM
[21] = biological target: Death-associated protein kinase 1 (Homo sapiens) (UniProt P53355); conditions: Compound concentration 1000.0 nM
Sequence of Death-associated protein kinase 1 (Homo sapiens) (P53355 whole entry, looked up): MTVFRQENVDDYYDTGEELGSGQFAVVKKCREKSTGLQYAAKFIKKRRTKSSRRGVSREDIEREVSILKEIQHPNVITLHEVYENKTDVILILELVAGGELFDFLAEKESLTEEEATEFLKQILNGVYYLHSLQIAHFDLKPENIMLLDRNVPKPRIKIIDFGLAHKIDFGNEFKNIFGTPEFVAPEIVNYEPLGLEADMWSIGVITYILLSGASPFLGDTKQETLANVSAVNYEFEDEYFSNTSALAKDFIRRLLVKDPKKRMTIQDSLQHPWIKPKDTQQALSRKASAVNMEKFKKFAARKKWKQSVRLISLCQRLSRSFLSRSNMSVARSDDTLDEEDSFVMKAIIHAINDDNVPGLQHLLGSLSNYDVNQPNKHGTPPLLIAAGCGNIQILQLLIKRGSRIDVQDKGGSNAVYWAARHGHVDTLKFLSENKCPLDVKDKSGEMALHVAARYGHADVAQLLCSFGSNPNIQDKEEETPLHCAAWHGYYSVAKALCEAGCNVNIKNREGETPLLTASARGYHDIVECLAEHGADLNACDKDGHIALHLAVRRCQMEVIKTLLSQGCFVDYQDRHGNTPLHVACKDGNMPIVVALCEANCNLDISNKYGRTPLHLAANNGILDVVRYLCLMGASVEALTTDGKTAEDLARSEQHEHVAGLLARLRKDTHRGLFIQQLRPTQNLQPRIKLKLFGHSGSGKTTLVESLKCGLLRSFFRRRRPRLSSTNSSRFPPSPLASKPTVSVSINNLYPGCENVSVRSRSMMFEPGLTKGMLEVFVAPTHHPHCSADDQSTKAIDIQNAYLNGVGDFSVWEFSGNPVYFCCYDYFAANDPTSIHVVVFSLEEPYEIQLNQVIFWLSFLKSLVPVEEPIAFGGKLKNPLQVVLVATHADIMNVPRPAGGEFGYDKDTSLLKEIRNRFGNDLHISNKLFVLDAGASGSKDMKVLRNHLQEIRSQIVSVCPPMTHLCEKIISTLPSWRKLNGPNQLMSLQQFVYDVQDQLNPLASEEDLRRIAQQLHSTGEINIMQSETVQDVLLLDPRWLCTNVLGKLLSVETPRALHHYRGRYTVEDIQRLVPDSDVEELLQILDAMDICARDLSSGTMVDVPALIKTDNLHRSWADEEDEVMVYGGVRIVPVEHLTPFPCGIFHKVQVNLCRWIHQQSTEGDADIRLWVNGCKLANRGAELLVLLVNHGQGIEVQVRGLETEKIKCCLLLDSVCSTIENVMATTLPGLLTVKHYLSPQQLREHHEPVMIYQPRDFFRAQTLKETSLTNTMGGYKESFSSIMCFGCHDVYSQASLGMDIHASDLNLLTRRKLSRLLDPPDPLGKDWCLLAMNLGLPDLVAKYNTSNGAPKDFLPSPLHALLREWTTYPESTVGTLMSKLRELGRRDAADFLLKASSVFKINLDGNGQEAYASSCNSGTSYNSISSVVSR

[22] = tested on: Receptor-type tyrosine-protein kinase FLT3 (Homo sapiens), P36888 [K663Q]; conditions: Compound concentration 1000.0 nM
[23] = biological target: Serine/threonine-protein kinase 33 (Homo sapiens) (UniProt Q9BYT3); conditions: Compound concentration 1000.0 nM
[24] = biological target: Mitogen-activated protein kinase 15 (Homo sapiens) (UniProt Q8TD08); conditions: Compound concentration 1000.0 nM
[25] = biological target: Serine/threonine-protein kinase 32C (Homo sapiens) (UniProt Q86UX6); conditions: Compound concentration 1000.0 nM
[26] = biological target: Ribosomal protein S6 kinase alpha-5 (Homo sapiens) (UniProt O75582); conditions: Compound concentration 1000.0 nM
[27] = biological target: Serine/threonine-protein kinase RIO2 (Homo sapiens) (UniProt Q9BVS4); conditions: Compound concentration 1000.0 nM
Sequence of Serine/threonine-protein kinase RIO2 (Homo sapiens) (Q9BVS4 whole entry, looked up): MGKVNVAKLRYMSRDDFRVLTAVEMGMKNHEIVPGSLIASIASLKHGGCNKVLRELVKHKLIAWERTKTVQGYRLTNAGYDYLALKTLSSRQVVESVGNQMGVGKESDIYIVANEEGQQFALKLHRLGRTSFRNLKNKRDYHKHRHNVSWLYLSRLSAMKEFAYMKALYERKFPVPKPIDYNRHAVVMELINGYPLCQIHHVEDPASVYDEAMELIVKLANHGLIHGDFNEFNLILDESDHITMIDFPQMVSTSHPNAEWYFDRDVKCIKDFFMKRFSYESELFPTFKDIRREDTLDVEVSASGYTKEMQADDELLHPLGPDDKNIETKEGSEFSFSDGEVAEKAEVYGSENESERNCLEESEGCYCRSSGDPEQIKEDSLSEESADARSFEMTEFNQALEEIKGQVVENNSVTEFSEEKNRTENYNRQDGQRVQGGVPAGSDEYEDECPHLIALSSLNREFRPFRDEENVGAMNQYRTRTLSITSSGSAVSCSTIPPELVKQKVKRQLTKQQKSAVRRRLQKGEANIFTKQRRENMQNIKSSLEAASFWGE

[28] = biological target: Tyrosine-protein kinase TXK (Homo sapiens) (UniProt P42681); conditions: Compound concentration 1000.0 nM
Sequence of Tyrosine-protein kinase TXK (Homo sapiens) (P42681 whole entry): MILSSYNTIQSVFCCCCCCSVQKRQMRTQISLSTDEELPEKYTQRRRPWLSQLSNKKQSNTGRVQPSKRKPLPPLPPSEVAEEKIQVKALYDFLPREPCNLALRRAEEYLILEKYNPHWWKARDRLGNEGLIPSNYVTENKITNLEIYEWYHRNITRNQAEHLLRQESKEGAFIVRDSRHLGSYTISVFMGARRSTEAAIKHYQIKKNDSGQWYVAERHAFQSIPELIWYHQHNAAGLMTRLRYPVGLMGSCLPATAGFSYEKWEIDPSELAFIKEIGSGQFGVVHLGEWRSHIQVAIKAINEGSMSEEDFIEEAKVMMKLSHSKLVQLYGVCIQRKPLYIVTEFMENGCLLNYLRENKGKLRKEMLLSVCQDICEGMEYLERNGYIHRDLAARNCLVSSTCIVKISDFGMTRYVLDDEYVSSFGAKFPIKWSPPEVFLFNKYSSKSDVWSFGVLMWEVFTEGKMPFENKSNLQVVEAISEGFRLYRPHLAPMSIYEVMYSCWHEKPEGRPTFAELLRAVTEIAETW

[29] = biological target: Mu-type opioid receptor (Homo sapiens) (UniProt P35372); conditions: Compound concentration 10.0 uM
[30] = biological target: LIM domain kinase 2 (Homo sapiens) (UniProt P53671); conditions: Compound concentration 1000.0 nM
[31] = biological target: Membrane-associated tyrosine- and threonine-specific cdc2-inhibitory kinase (Homo sapiens) (UniProt Q99640); conditions: Compound concentration 1000.0 nM
[32] = biological target: NUAK family SNF1-like kinase 2 (Homo sapiens) (UniProt Q9H093); conditions: Compound concentration 1000.0 nM
[33] = biological target: Adrenergic receptor alpha-2 (Rattus norvegicus) (UniProt P22086+P19328+P22909); experiment: ALPHA2/R Eurofins-Panlabs selectivity data (BI); type: protein assay; conditions: Compound concentration 10.0 uM
[34] = biological target: 5'-AMP-activated protein kinase catalytic subunit alpha-2 (Homo sapiens) (UniProt P54646); conditions: Compound concentration 1000.0 nM
[35] = biological target: cGMP-inhibited 3',5'-cyclic phosphodiesterase 3A (Homo sapiens) (UniProt Q14432); experiment: PDE-III/HU Eurofins-Panlabs selectivity data (BI); conditions: Compound concentration 10.0 uM
[36] = biological target: Neutrophil elastase (Homo sapiens) (UniProt P08246); experiment: ELASTASEPMN Eurofins-Panlabs selectivity data (BI); conditions: Compound concentration 10.0 uM
Sequence of Neutrophil elastase (Homo sapiens) (P08246 whole entry): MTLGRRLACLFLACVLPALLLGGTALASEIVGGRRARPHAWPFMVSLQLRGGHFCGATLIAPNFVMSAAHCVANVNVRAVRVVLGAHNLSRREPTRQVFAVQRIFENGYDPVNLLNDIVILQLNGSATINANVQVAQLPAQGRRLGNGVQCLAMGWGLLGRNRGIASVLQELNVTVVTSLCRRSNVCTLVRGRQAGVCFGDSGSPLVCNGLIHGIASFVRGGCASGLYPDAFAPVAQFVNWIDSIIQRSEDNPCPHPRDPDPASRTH

[37] = biological target: Serine/threonine-protein kinase 36 (Homo sapiens) (UniProt Q9NRP7); conditions: Compound concentration 1000.0 nM
[38] = biological target: LIM domain kinase 1 (Homo sapiens) (UniProt P53667); conditions: Compound concentration 1000.0 nM
[39] = biological target: Calcium/calmodulin-dependent protein kinase type II subunit delta (Homo sapiens) (UniProt Q13557); conditions: Compound concentration 1000.0 nM
Sequence of Calcium/calmodulin-dependent protein kinase type II subunit delta (Homo sapiens) (Q13557 whole entry): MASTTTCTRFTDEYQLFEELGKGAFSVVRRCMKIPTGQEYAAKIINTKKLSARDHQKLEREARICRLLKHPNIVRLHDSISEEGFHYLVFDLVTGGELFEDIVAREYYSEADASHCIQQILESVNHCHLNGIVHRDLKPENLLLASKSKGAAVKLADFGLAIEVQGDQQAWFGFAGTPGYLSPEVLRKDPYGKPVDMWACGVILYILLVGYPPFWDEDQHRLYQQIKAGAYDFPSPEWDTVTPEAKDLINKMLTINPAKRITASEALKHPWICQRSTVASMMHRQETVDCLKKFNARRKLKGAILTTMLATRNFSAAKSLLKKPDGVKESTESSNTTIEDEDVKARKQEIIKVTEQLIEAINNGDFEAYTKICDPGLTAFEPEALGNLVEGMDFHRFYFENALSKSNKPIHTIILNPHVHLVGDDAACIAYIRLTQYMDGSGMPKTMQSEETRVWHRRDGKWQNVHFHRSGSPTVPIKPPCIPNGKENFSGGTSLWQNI

[40] = biological target: Interleukin-1 receptor-associated kinase 4 (Homo sapiens) (UniProt Q9NWZ3); conditions: Compound concentration 1000.0 nM
Sequence of Interleukin-1 receptor-associated kinase 4 (Homo sapiens) (Q9NWZ3 whole entry): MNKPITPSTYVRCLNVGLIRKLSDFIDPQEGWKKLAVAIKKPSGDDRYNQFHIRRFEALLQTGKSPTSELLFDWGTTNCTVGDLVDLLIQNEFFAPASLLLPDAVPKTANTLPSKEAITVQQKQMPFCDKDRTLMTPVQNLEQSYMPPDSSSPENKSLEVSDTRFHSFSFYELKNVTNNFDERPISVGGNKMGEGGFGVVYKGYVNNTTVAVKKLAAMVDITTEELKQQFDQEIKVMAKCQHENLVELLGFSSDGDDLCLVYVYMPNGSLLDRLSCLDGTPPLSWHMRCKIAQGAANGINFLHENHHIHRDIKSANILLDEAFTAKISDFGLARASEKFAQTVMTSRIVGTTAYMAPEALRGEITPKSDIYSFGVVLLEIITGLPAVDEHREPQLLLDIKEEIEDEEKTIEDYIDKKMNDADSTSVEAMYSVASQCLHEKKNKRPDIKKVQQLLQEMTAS

[41] = biological target: TGF-beta receptor type-2 (Homo sapiens) (UniProt P37173); conditions: Compound concentration 1000.0 nM
[42] = biological target: Serine/threonine-protein kinase PAK 6 (Homo sapiens) (UniProt Q9NQU5); conditions: Compound concentration 1000.0 nM
[43] = biological target: Ephrin type-B receptor 3 (Homo sapiens) (UniProt P54753); conditions: Compound concentration 1000.0 nM
[44] = tested on: Tyrosine-protein kinase ABL1 (Homo sapiens), P00519 [T315I]; conditions: Compound concentration 1000.0 nM
[45] = biological target: 3',5'-cyclic-AMP phosphodiesterase 4A (Homo sapiens) (UniProt P27815); experiment: PDE-IV/HU Eurofins-Panlabs selectivity data (BI); conditions: Compound concentration 10.0 uM

Compound: CCOCCn1cc(C(=O)Nc2ccc(-n3nc(-c4cccnc4)cc3C(F)(F)F)cn2)ccc1=O [BI 1935]
- residual activity [1]: 98%
- residual activity [2]: 81%
- residual activity [3]: 100%
- residual activity [4]: 100%
- residual activity [5]: 88%
- residual activity [6]: 82%
- residual activity [7]: 88%
- activity at 10 µM [8]: 94.5% (not active)
- residual activity [9]: 79%
- residual activity [10]: 93%
- residual activity [11]: 100%
- residual activity [12]: 103%
- residual activity [13]: 100%
- residual activity [14]: 100%
- residual activity [15]: 74%
- residual activity [16]: 81%
- residual activity [17]: 85%
- residual activity [18]: 106%
- residual activity [19]: 64%
- residual activity [20]: 100%
- residual activity [21]: 100%
- residual activity [22]: 98%
- residual activity [23]: 94%
- residual activity [24]: 100%
- residual activity [25]: 100%
- residual activity [26]: 63%
- residual activity [27]: 60%
- residual activity [28]: 81%
- inhibition [29]: 2.68%
- residual activity [30]: 100%
- residual activity [31]: 100%
- residual activity [32]: 73%
- residual activity [33]: 91%
- residual activity [34]: 100%
- residual activity [35]: 85%
- residual activity [36]: 100%
- residual activity [37]: 71%
- residual activity [38]: 84%
- residual activity [39]: 100%
- residual activity [40]: 96%
- residual activity [41]: 100%
- residual activity [42]: 100%
- residual activity [43]: 89%
- residual activity [44]: 96%
- residual activity [45]: 86%
